Calls of active or inactive are those of the source. The rule behind the calls is not given here.
Experiments:
Format in all cases: functional
Rattus norvegicus [1] = assay: Antihypertensive activity in spontaneous hypertensive rat model assessed as change in blood pressure at 100 mg/kg, po on day 1 and 3 measured 2 hrs post dose on day 1 by standard 3-day test
Rattus norvegicus [2] = assay: Antihypertensive activity in spontaneous hypertensive rat model assessed as change in blood pressure at 100 mg/kg, po on day 1 and 3 measured 2 hrs post dose on day 3 by standard 3-day test
Rattus norvegicus [3] = assay: Antihypertensive activity in spontaneous hypertensive rat model assessed as change in blood pressure at 50 mg/kg, po on day 1 and 3 measured 2 hrs post dose on day 3 by standard 3-day test

Row | SMILES | Activity (Rattus norvegicus [1]) | Activity (Rattus norvegicus [2]) | Activity (Rattus norvegicus [3]) [mmHg]
1 | COc1cc2[nH]c(C)c(CCN3CCN(NC(=O)c4ccccc4)CC3)c2cc1OC | 9 mmHg | 12 mmHg | 
2 | COc1cccc(C(=O)NN2CCN(CCc3c[nH]c4ccccc34)CC2)c1 | 21 mmHg | 2 mmHg | 
3 | Cl.O=C(NC1CCN(CCc2c[nH]c3ccccc23)CC1)c1ccccc1 [INDORAMIN HYDROCHLORIDE] | 63 mmHg |  | 79
4 | COc1ccc(C(=O)NN2CCN(CCc3c[nH]c4ccccc34)CC2)cc1 | 25 mmHg | 19 mmHg | 
5 | O=C(NN1CCN(CCc2c[nH]c3ccccc23)CC1)c1ccncc1 | 23 mmHg | 24 mmHg | 
6 | CC(=O)NN1CCN(CCc2c[nH]c3ccccc23)CC1 | 32 mmHg | 40 mmHg | 
7 | COc1cc2[nH]c(C)c(CCN3CCN(NC(=O)c4ccc(C(F)(F)F)cc4)CC3)c2cc1OC.Cl | 2 mmHg | 5 mmHg | 
8 | COc1ccccc1C(=O)NN1CCN(CCc2c[nH]c3ccccc23)CC1 | 7 mmHg | 23 mmHg | 
9 | O=C(NN1CCN(CCc2c[nH]c3ccccc23)CC1)c1cccc(C(F)(F)F)c1 | 49 mmHg | 19 mmHg | 
10 | COc1cc2[nH]c(C)c(CCN3CCN(NC(=O)c4ccccc4OC)CC3)c2cc1OC.Cl | 4 mmHg | 15 mmHg | 
11 | O.O=C(NN1CCN(CCc2c[nH]c3ccccc23)CC1)c1ccccc1 | 24 mmHg | 56 mmHg | 
12 | Cc1ccc(C(=O)NN2CCN(CCc3c[nH]c4ccccc34)CC2)cc1 | 18 mmHg | 43 mmHg | 
13 | O=C(NN1CCN(CCc2c[nH]c3ccccc23)CC1)c1ccccc1F | 47 mmHg | 56 mmHg | 
14 | Cc1[nH]c2ccccc2c1CCN1CCN(NC(=O)c2ccccc2)CC1 | 39 mmHg | 37 mmHg | 
15 | O=C(NN1CCN(CC(O)c2c[nH]c3ccccc23)CC1)c1ccccc1 (racemic) | 30 mmHg | 33 mmHg | 
16 | COc1cc(OC)cc(C(=O)NN2CCN(CCc3c[nH]c4ccccc34)CC2)c1 | 46 mmHg | 111 mmHg | 
17 | O=C(NN1CCN(Cc2c[nH]c3ccccc23)CC1)c1ccc(F)cc1 | Active | Active | 

Row | SMILES | Activity (Rattus norvegicus [1]) | Activity (Rattus norvegicus [2]) | Activity (Rattus norvegicus [3]) [mmHg]
18 | COc1cc(C(=O)NN2CCN(Cc3c[nH]c4ccccc34)CC2)cc(OC)c1OC | 20 mmHg | 36 mmHg | 
19 | COc1cc2[nH]c(C)c(CCN3CCN(NC(=O)c4ccc(F)cc4)CC3)c2cc1OC | 9 mmHg | 23 mmHg | 
20 | Cc1[nH]c2ccccc2c1CCN1CCN(NC(=O)c2ccc([N+](=O)[O-])cc2)CC1 | 25 mmHg | 20 mmHg | 
21 | O=C(NN1CCN(CCc2c[nH]c3ccccc23)CC1)C1CC2CCC1C2 (stereo unspecified) | 20 mmHg | 11 mmHg | 
22 | Cc1[nH]c2ccccc2c1CCN1CCN(NC(=O)c2ccc(F)cc2)CC1 | 29 mmHg | 25 mmHg | 
23 | COc1cc(C(=O)NN2CCN(CCc3c[nH]c4ccccc34)CC2)cc(OC)c1OC | 63 mmHg | 70 mmHg | 
24 | O=C(NN1CCN(CCc2c[nH]c3ccccc23)CC1)c1ccco1 | 58 mmHg | 64 mmHg | 
25 | O=C(NN1CCN(Cc2c[nH]c3ccccc23)CC1)c1ccccc1 | Active | Active | 
26 | Cc1cccc(C(=O)NN2CCN(CCc3c[nH]c4ccccc34)CC2)c1 | 17 mmHg | 26 mmHg | 
27 | Cc1ccccc1C(=O)NN1CCN(CCc2c[nH]c3ccccc23)CC1 | 19 mmHg | 19 mmHg | 
28 | O=C(NN1CCN(CCc2c[nH]c3ccccc23)CC1)c1ccc(C(F)(F)F)cc1 | 9 mmHg | 36 mmHg | 
29 | O=C(NN1CCN(CCc2c[nH]c3ccccc23)CC1)c1ccc(F)cc1 | 56 mmHg | 57 mmHg | 
30 | O=C(NN1CCN(CCc2c[nH]c3ccccc23)CC1)c1ccc(Cl)cc1 | 17 mmHg | 22 mmHg | 
31 | O=C(NN1CCN(CCc2c[nH]c3ccccc23)CC1)c1ccc([N+](=O)[O-])cc1 | 17 mmHg | 16 mmHg | 
32 | O=C(NN1CCN(CCc2c[nH]c3ccccc23)CC1)C(c1ccccc1)c1ccccc1 | 3 mmHg | 10 mmHg | 
33 | O=C(NN1CCN(CCc2c[nH]c3ccccc23)CC1)C1CCCCC1 | 37 mmHg | 35 mmHg | 
